Experimental data reported in ChEMBL document CHEMBL1155330, “Schisanwilsonins A-G and related anti-HBV lignans from the fruits of Schisandra wilsoniana” (Bioorg Med Chem Lett, 2009).

Assays:
[1] = Cytotoxicity against human HepG2(2.2.15) cells at 200 ug/mL by MTT assay; type: cell-based; settings: read-out: GI
[2] = test system: Hepatitis B virus; test: Antiviral activity against Hepatitis B virus infected human HepG2.2.15 cells assessed as HBsAg secretion at 25 […] after 9 days by ELISA; type: functional; settings: HepG2 2.2.15, 216 h
[3] = Cytotoxicity against human HepG2(2.2.15) cells at 100 ug/mL by MTT assay; type: cell-based; settings: read-out: GI
[4] = test system: Hepatitis B virus; test: Antiviral activity against Hepatitis B virus infected human HepG2.2.15 cells assessed as HBeAg secretion at 50 […] after 9 days by ELISA; type: functional; settings: HepG2 2.2.15, 216 h
[5] = test system: Hepatitis B virus; test: Antiviral activity against Hepatitis B virus infected human HepG2.2.15 cells assessed as HBsAg secretion at 50 […] after 9 days by ELISA; type: functional; settings: HepG2 2.2.15, 216 h
[6] = test system: Hepatitis B virus; test: Antiviral activity against Hepatitis B virus infected human HepG2.2.15 cells assessed as HBeAg secretion at 25 […] after 9 days by ELISA; type: functional; settings: HepG2 2.2.15, 216 h
[7] = test system: Hepatitis B virus; test: Antiviral activity against Hepatitis B virus infected human HepG2.2.15 cells assessed as HBsAg secretion at 100 […] after 9 days by ELISA; type: functional; settings: HepG2 2.2.15, 216 h
[8] = test system: Hepatitis B virus; test: Antiviral activity against Hepatitis B virus infected human HepG2.2.15 cells assessed as HBeAg secretion at 100 […] after 9 days by ELISA; type: functional; settings: HepG2 2.2.15, 216 h
[9] = test system: Hepatitis B virus; test: Antiviral activity against Hepatitis B virus infected human HepG2.2.15 cells assessed as HBeAg secretion at 200 […] after 9 days by ELISA; type: functional; settings: HepG2 2.2.15, 216 h
[10] = test system: Hepatitis B virus; test: Antiviral activity against Hepatitis B virus infected human HepG2.2.15 cells assessed as HBsAg secretion at 200 […] after 9 days by ELISA; type: functional; settings: HepG2 2.2.15, 216 h
[11] = Cytotoxicity against human HepG2(2.2.15) cells at 50 ug/mL by MTT assay; type: cell-based; settings: read-out: GI

C/C=C(/C)C(=O)O[C@H]1c2cc(OC)c(OC)c(OC)c2-c2c(cc3c(c2O)OCO3)C[C@H](C)[C@@]1(C)O [SCHISANWILSONIN A]
inhibition at 200 ug/mL [1]: ≥ 25%
inhibition in vivo at 0.025 mg/kg [2]: 0%
inhibition at 100 ug/mL [3]: ≥ 25%
inhibition in vivo at 0.05 mg/kg [4]: 14%
inhibition in vivo at 0.05 mg/kg [5]: 5.3%
inhibition in vivo at 0.025 mg/kg [6]: 0%

COc1cc2c(c(OC)c1OC)-c1c(cc3c(c1O)OCO3)C[C@H](C)[C@@](C)(O)[C@H]2OC(=O)c1ccccc1 [SCHISANWILSONIN C]
inhibition at 200 ug/mL [1]: ≥ 25%
inhibition in vivo at 0.025 mg/kg [2]: 0%
inhibition at 100 ug/mL [3]: ≥ 25%
inhibition in vivo at 0.05 mg/kg [4]: 11.7%
inhibition in vivo at 0.05 mg/kg [5]: 0%
inhibition in vivo at 0.025 mg/kg [6]: 11.6%

C/C=C(\C)C(=O)O[C@H]1c2cc(OC)c(OC)c(OC)c2-c2c(cc(O)c(OC)c2O)C[C@H](C)[C@@]1(C)O [SCHISANWILSONIN D]
inhibition at 200 ug/mL [1]: ≥ 25%
inhibition in vivo at 0.025 mg/kg [2]: 12.5%
inhibition in vivo at 0.05 mg/kg [4]: 16.5%
inhibition in vivo at 0.05 mg/kg [5]: 19.5%
inhibition in vivo at 0.1 mg/kg [7]: 28.8%
inhibition in vivo at 0.025 mg/kg [6]: 6.2%
inhibition in vivo at 0.1 mg/kg [8]: 21.6%

COc1cc2c(c(OC)c1OC)-c1c(cc3c(c1O)OCO3)C[C@H](C)[C@@](C)(O)[C@H]2OC(=O)C(C)C [SCHISANWILSONIN E]
inhibition at 200 ug/mL [1]: ≥ 25%
inhibition in vivo at 0.025 mg/kg [2]: 0%
inhibition in vivo at 0.05 mg/kg [4]: 0%
inhibition in vivo at 0.05 mg/kg [5]: 0%
inhibition in vivo at 0.1 mg/kg [7]: 0%
inhibition in vivo at 0.025 mg/kg [6]: 0%
inhibition in vivo at 0.1 mg/kg [8]: 2%

COc1cc2c(c(OC)c1OC)-c1c(cc(OC)c(OC)c1OC)C[C@H](C)[C@H](C)C2 [SCHISANDRIN A]
inhibition in vivo at 0.2 mg/kg [9]: 15.9%
inhibition in vivo at 0.2 mg/kg [10]: 50.3%
inhibition in vivo at 0.025 mg/kg [2]: 0%
inhibition in vivo at 0.05 mg/kg [4]: 0%
inhibition in vivo at 0.05 mg/kg [5]: 8.8%
inhibition in vivo at 0.1 mg/kg [7]: 30.9%
inhibition in vivo at 0.025 mg/kg [6]: 0%
inhibition in vivo at 0.1 mg/kg [8]: 11.9%

COc1cc2c(c(O)c1OC)-c1c(cc(OC)c(OC)c1OC)C[C@@H](C)[C@@H](C)C2 [SCHISANHENOL]
inhibition at 200 ug/mL [1]: ≥ 25%
inhibition in vivo at 0.025 mg/kg [2]: 45%
inhibition at 100 ug/mL [3]: ≥ 25%
inhibition at 50 ug/mL [11]: ≥ 25%
inhibition in vivo at 0.025 mg/kg [6]: 0%

COc1cc2c(c(OC)c1OC)-c1c(cc3c(c1O)OCO3)C[C@H](C)[C@@](C)(O)[C@H]2OC(C)=O [SCHISANWILSONIN F]
inhibition at 200 ug/mL [1]: ≥ 25%
inhibition in vivo at 0.025 mg/kg [2]: 0%
inhibition in vivo at 0.05 mg/kg [4]: 6.7%
inhibition in vivo at 0.05 mg/kg [5]: 0%
inhibition in vivo at 0.1 mg/kg [7]: 0%
inhibition in vivo at 0.025 mg/kg [6]: 5.5%
inhibition in vivo at 0.1 mg/kg [8]: 9.3%

COc1cc2c(c(OC)c1OC)-c1c(cc(O)c(OC)c1O)C[C@H](C)[C@@](C)(O)[C@H]2OC(=O)c1ccccc1 [SCHISANWILSONIN G]
inhibition in vivo at 0.2 mg/kg [9]: 5.6%
inhibition in vivo at 0.2 mg/kg [10]: 0%
inhibition in vivo at 0.025 mg/kg [2]: 0%
inhibition in vivo at 0.05 mg/kg [4]: 1.6%
inhibition in vivo at 0.05 mg/kg [5]: 0%
inhibition in vivo at 0.1 mg/kg [7]: 0%
inhibition in vivo at 0.025 mg/kg [6]: 0%
inhibition in vivo at 0.1 mg/kg [8]: 3.4%

Nc1ccn([C@@H]2CS[C@H](CO)O2)c(=O)n1 [LAMIVUDINE]
inhibition in vivo at 0.2 mg/kg [9]: 34.5%
inhibition in vivo at 0.2 mg/kg [10]: 28.6%

COc1cc2c(c(O)c1OC)-c1c(cc(OC)c(OC)c1OC)C[C@](C)(O)[C@@H](C)C2 [GOMISIN H]
inhibition in vivo at 0.2 mg/kg [9]: 1.6%
inhibition in vivo at 0.2 mg/kg [10]: 11.6%
inhibition in vivo at 0.025 mg/kg [2]: 0%
inhibition in vivo at 0.05 mg/kg [4]: 0%
inhibition in vivo at 0.05 mg/kg [5]: 0%
inhibition in vivo at 0.1 mg/kg [7]: 3.7%
inhibition in vivo at 0.025 mg/kg [6]: 0%
inhibition in vivo at 0.1 mg/kg [8]: 0%

C/C=C(\C)C(=O)O[C@H]1c2cc(OC)c(OC)c(OC)c2-c2c(cc3c(c2O)OCO3)C[C@H](C)[C@@]1(C)O [SCHISANWILSONIN B]
inhibition at 200 ug/mL [1]: ≥ 25%
inhibition in vivo at 0.025 mg/kg [2]: 0%
inhibition in vivo at 0.05 mg/kg [4]: 9.2%
inhibition in vivo at 0.05 mg/kg [5]: 0%
inhibition in vivo at 0.1 mg/kg [7]: 7.4%
inhibition in vivo at 0.025 mg/kg [6]: 0.6%
inhibition in vivo at 0.1 mg/kg [8]: 18.1%
